Laboratory results reported in ChEMBL document CHEMBL4229379, “Synthesis and structure-activity relationship of novel bisindole amidines active against MDR Gram-positive and Gram-negative bacteria” (Eur J Med Chem, 2018).
≈ marks a conversion by molar mass, not a printed value.

How the values were obtained:
Format in all cases: functional
[1] = test system: Klebsiella aerogenes; experiment: Antibacterial activity against carbapenem-resistant Enterobacter aerogenes 11-4 after 18 hrs by CLSI broth microdilution method; conditions: 11-4, 18 h
[2] = test system: Acinetobacter calcoaceticus; experiment: Antibacterial activity against new delhi metallo-beta-lactamase-1 harboring Acinetobacter calcoaceticus 13-1 after 18 hrs by CLSI broth microdilution method; conditions: 13-1, 18 h
[3] = test system: Klebsiella pneumoniae; experiment: Antibacterial activity against carbapenem-resistant Klebsiella pneumoniae 12-12 after 18 hrs by CLSI broth microdilution method; conditions: 12-12, 18 h
[4] = test system: Escherichia coli; experiment: Antibacterial activity against extended-spectrum beta-lactamase harboring Escherichia coli 13-1 after 18 hrs by CLSI broth microdilution method; conditions: 13-1, 18 h
[5] = test system: Enterobacter cloacae; experiment: Antibacterial activity against new delhi metallo-beta-lactamase-1 harboring Enterobacter cloacae CDC1000654 after 18 hrs by CLSI broth microdilution method; conditions: CDC1000654, 18 h
[6] = test system: Enterobacter cloacae; experiment: Antibacterial activity against new delhi metallo-beta-lactamase-1 harboring Enterobacter cloacae 13-1 after 18 hrs by CLSI broth microdilution method; conditions: 13-1, 18 h
[7] = test system: Klebsiella pneumoniae; experiment: Antibacterial activity against carbapenem-resistant Klebsiella pneumoniae 12-11 after 18 hrs by CLSI broth microdilution method; conditions: 12-11, 18 h
[8] = test system: Acinetobacter calcoaceticus; experiment: Antibacterial activity against carbapenem-resistant Acinetobacter calcoaceticus 12-6 after 18 hrs by CLSI broth microdilution method; conditions: 12-6, 18 h
[9] = test system: Escherichia coli; experiment: Antibacterial activity against extended-spectrum beta-lactamase harboring Escherichia coli CDC1001728 after 18 hrs by CLSI broth microdilution method; conditions: CDC1001728, 18 h
[10] = test system: Klebsiella pneumoniae; experiment: Antibacterial activity against new delhi metallo-beta-lactamase-1 harboring Klebsiella pneumoniae ATCC BAA-2146 after 18 hrs by CLSI broth microdilution method; conditions: ATCC BAA-2146, 18 h
[11] = test system: Klebsiella pneumoniae; experiment: Antibacterial activity against new delhi metallo-beta-lactamase-1 harboring Klebsiella pneumoniae 13-1 after 18 hrs by CLSI broth microdilution method; conditions: 13-1, 18 h

CN(C)c1cc(NC(=O)CNC(C)(C)C)c(O)c2c1C[C@H]1C[C@H]3[C@H](N(C)C)C(O)=C(C(N)=O)C(=O)[C@@]3(O)C(O)=C1C2=O [TIGECYCLINE]
MIC [1]: 1 µg/mL (≈ 1.71 µM)
MIC [2]: 0.5 µg/mL (≈ 0.854 µM)
MIC [3]: 1 µg/mL (≈ 1.71 µM)
MIC [4]: 0.25 µg/mL (≈ 0.427 µM)
MIC [5]: 8 µg/mL (≈ 13.7 µM)
MIC [6]: 1 µg/mL (≈ 1.71 µM)
MIC [7]: 1 µg/mL (≈ 1.71 µM)
MIC [8]: 1 µg/mL (≈ 1.71 µM)
MIC [9]: 0.5 µg/mL (≈ 0.854 µM)
MIC [10]: 8 µg/mL (≈ 13.7 µM)
MIC [11]: 0.5 µg/mL (≈ 0.854 µM)

C[C@@H](O)[C@H]1C(=O)N2C(C(=O)O)=C(S[C@@H]3CN[C@H](C(=O)N(C)C)C3)[C@H](C)[C@H]12 [MEROPENEM]
MIC [1]: 32 µg/mL (≈ 83.4 µM)
MIC [2]: 64 µg/mL (≈ 167 µM)
MIC [3]: 32 µg/mL (≈ 83.4 µM)
MIC [4]: 4 µg/mL (≈ 10.4 µM)
MIC [5]: 2 µg/mL (≈ 5.22 µM)
MIC [6]: 32 µg/mL (≈ 83.4 µM)
MIC [7]: 64 µg/mL (≈ 167 µM)
MIC [8]: 32 µg/mL (≈ 83.4 µM)
MIC [9]: 2 µg/mL (≈ 5.22 µM)
MIC [11]: 8 µg/mL (≈ 20.9 µM)
